This assay has as its system Plasmodium falciparum clone from CDC/Indochina III (W-2). The experiment in a line: WRAIR in vitro antimalarial serial dilution assay ([3H]-hypoxanthine incorporation). The assay is classed as cell-based. An excerpt:
The Walter Reed Army Institute of Research (WRAIR) in vitro screens for intrinsic antimalarial activity are based on modifications of procedures described in the literature [Desjardins, R. E. et al. (1979) J.D. Antimicrobial Agents and Chemotherapy, 16(6):710-8]; Chulay et al. (1983) [Journal of Infectious Diseases 148(1):148-55]; Milhous, W. K. et al. (1985) [Antimicrobial Agents and Chemotherapy 27(4):525-30]. The system is directed to the assessment of the intrinsic activity against the erythrocytic asexual life cycle (blood schizontocides)]. A minimum of 10 mg of sample is generally submitted for initial testing. Two Plasmodium falciparum clones from CDC/Indochina III (W-2) and CDC/Sierra Leone I (D-6) [Oduola, A. M. et al. (1988) [Experimental Parasitology 67(2):354-60] are used for all assays. W-2 is resistant to chloroquine, quinine and pyrimethamine and susceptible to mefloquine. D-6 is resistant to mefloquine and susceptible to chloroquine, quinine and pyrimethamine.
The clones are maintained in continuous log-phase growth in RPMI-1640 medium supplemented with 6% washed human A+ erythrocytes, 25 mM Hepes, […] NaHCO3 and 10% heat inactivated A+ human plasma or albuMAX™ (lipid-rich bovine serum albumin, GIBCO, Grand Island, N.Y.). All cultures and assays are conducted at 37° C. under an atmosphere of 5% CO2 and 5% O2, with a balance of N2.
The preliminary screen uses D-6 diluted to a 0.2% parasitemia in a 1% hematocrit in folic acid free and p-aminobenzoic acid free RPMI-1640 and albuMAX™ (FF-CM). […] The compound is further diluted to a stock solution to 10 ml with FF-CM. This stock solution is kept at −70° C. until used. The clone is preexposed, in duplicate, at three concentrations (50,000 ng/ml, 5,000 ng/ml and 50 ng/ml) of the test compound for 48 hr in a 96-well microliter plate (MTP) using a Biomek® 1000 automated laboratory workstation (Beckman Instruments, Fullerton, Calif.). Each MTP contains chloroquine-containing controls to assess the relative activity of the unknown compound and to monitor the response of D-6.
After the preincubation, [^3H]-hypoxanthine is added to each well of the MTP to determine if the parasites can still replicate or repair DNA. After 66 hr of total incubation time, the MTP are frozen to lyse the erythrocytes and parasites. The parasite DNA is recovered by harvesting the lysate onto glass-fiber filters using a Mark II cell-harvester (Tomtec, Orange, Conn.). The radioactivity is counted on a 1205 Betaplate™ liquid scintillation counter (Wallac, Turku, Finland).
The serial dilution assay is conducted using the same assay conditions and stock solution of the compound used for the preliminary screen. Both the D-6 and the W-2 clones are used. The compound is diluted two-fold over 11 different concentration ranges with a starting concentration that is based on the preliminary screen. The IC50 is determined by a non-linear logistic dose response analysis (TableCurve™, Jandel Scientific, Corte Madera, Calif.). […] For each assay, the IC50 for each clone is determined against the known antimalarials chloroquine, mefloquine, artemisinin, quinine and pyrimethamine. These control values establish the unknown compound's relative parasite susceptibility profile compared to known antimalarials. IC50s can be similarly determined for drug-resistant isolates/clones from a wide variety of geographic locations.

[1] abbreviates: Table III, formula V, read-out: IC50.
[2] abbreviates: Plasmodium falciparum, similar tests, read-out: IC50.
The mark [3] stands for this setting: Table I, formula III, W2 clone (CDC/Indochina III), * run: chloroquine 0.23 μM, † run: chloroquine 0.2-0.4 μM, read-out: IC50.

Read-outs that look alike come from different tables or passages of the source. Where only a bound is given, the exact number is not on record here.

This is an account of results in patent US6548521B1, “Inhibitors of metazoan parasite proteases” (The Regents of the University of California, priority 1992, dated 2003).

A word on the IC50: it is the concentration at which inhibition is half-maximal. `O=C(/C=C/c1c(Cl)cccc1Cl)c1ccc(-n2ccnc2)cc1` [Compound 52]: the half-inhibitory concentration (IC50) under setting [1] turned out to be 1.9 µM.

Consider `O=C(/C=C/c1cc(Cl)cc(Cl)c1)c1ccc(-n2ccnc2)cc1` [Compound 50], for which the IC50 under setting [1] stood at 0.91 µM.

Regarding `O=C(C=Cc1ccccc1)n1ccnc1` [Compound 48, cinnamoylimidazole, reference compound], the “antimalarial activity (in words)” value is “substantially no activity”. Also, the IC50 (read-out: IC50) was > 253 µM.

As for `Cn1cc(/C=C/C(=O)c2ccc(-n3ccnc3)cc2)c2ccccc21` [Compound 56], under setting [2], the IC50 is 20 µM.

Consider `COc1ccc(C(=O)/C=C/c2ccccc2Cl)c(OC)c1` [Compound 23], for which the IC50 under setting [3] was 5.8 µM.

On to `COc1ccccc1/C=C/C(=O)c1ccccc1O` [Compound 25], for which, under setting [3], the IC50 turned out to be 6.9 µM.

Take `COc1ccc(C(=O)/C=C/c2ccc([N+](=O)[O-])cc2)cc1OC` [Compound 24]: the “antimalarial activity (in words)” value is “poor activity”. The IC50 under setting [3] came to 5.9 µM.

`O=C(/C=C/c1ccccc1)c1ccc(O)c(O)c1O` [Compound 31]: under setting [3], the IC50 amounted to 10.1 µM.

In the case of `O=C(/C=C/c1ccccc1)c1ccc(O)cc1O` [Compound 19], the IC50 under setting [3] turned out to be 3.6 µM.

Turning to `COc1ccc(C(=O)/C=C/c2ccc(Cl)cc2Cl)c(OC)c1` [Compound 3], the IC50 under setting [3] turned out to be 0.42 µM.

Turning to `COc1ccc(C(=O)/C=C/c2cccc(F)c2F)c(OC)c1` [Compound 15], for the setting “similar tests, read-out: IC50”, the IC50 stood at 2.8 µM.

Take `COc1ccc(C(=O)/C=C/c2cccc(Cl)c2)c(OC)c1` [Compound 6]: the IC50 under setting [3] was determined as 0.74 µM.

On to `COc1ccc(/C=C/C(=O)c2ccc(F)cc2F)c(OC)c1` [Compound 32], for which the IC50 under setting [3] amounted to 11.1 µM.

Take `COc1ccc(C(=O)/C=C/c2ccc(Cl)cc2)cc1OC` [Compound 37]: the IC50 under setting [3] was 16.6 µM.

Consider `COc1ccc(C(=O)/C=C/c2c(F)cccc2F)c(OC)c1` [Compound 28], for which, under setting [3], the IC50 was 8.1 µM.

For `COc1ccc(C(=O)/C=C/c2c(F)cccc2F)cc1OC` [Compound 13], the IC50 under setting [3] came out at 2 µM.

Regarding `COc1ccc(C(=O)/C=C/c2ccc(F)c(F)c2)c(OC)c1` [Compound 4], under setting [3], the IC50 worked out at 0.47 µM.

In the case of `COc1ccc(/C=C/C(=O)c2ccccn2)c(OC)c1` [Compound 45], the half-maximal inhibitory concentration (IC50) (read-out: IC50) was found to be 4.6 µM.

With `COc1ccc(/C=C/C(=O)c2ccc(Cl)cc2Cl)c(OC)c1` [Compound 20], the IC50 under setting [3] worked out at 3.8 µM.

Consider `O=C(/C=C/c1ccc(F)cc1F)c1ccc(-n2ccnc2)cc1` [Compound 53], for which the IC50 under setting [1] came out at 3.2 µM.

`COc1ccc(C(=O)/C=C/c2cccc(Cl)c2Cl)c(OC)c1` [Compound 1]: for the setting “similar tests, read-out: IC50”, the IC50 stood at 0.38 µM.

Consider `O=C(/C=C/c1ccc(Cl)cc1Cl)c1ccc(-n2ccnc2)cc1` [Compound 49], for which the IC50 under setting [1] amounted to 0.72 µM.

In the case of `O=C(/C=C/c1ccc(Cl)cc1)c1ccc(Cl)c(Cl)c1` [Compound 40], under setting [3], the IC50 came out at 31.7 µM.

As to `O=C(/C=C/c1ccc(Cl)cc1)c1ccc(Cl)cc1Cl` [Compound 18], the half-maximal inhibitory concentration (IC50) under setting [3] is 3.6 µM.

Take `COc1ccc(C(=O)/C=C/c2ccc(F)c(F)c2)cc1OC` [Compound 35]: the IC50 under setting [3] worked out at 16.1 µM.

In the case of `CN(C)c1ccc(/C=C/C(=O)c2ccc(-n3ccnc3)cc2)cc1` [Compound 55], the IC50 under setting [1] stood at 18 µM.

As to `O=C(/C=C/c1ccccc1O)c1ccccc1O` [Compound 34], the IC50 under setting [3] is 14.7 µM.

Regarding `O=C(/C=C/c1cccc(O)c1)c1ccccc1O` [Compound 41], the IC50 under setting [3] was 77 µM.

Take `O=C(/C=C/c1ccc(O)cc1)c1ccccc1O` [Compound 39]: the IC50 under setting [3] amounted to 23 µM.

For the compound `O=C(/C=C/c1cccc(Cl)c1Cl)c1ccc(-n2ccnc2)cc1` [Compound 51], under setting [1], the IC50 stood at 1.8 µM.

For the compound `COc1ccc(C(=O)/C=C/c2ccc(F)cc2F)c(OC)c1` [Compound 7], under setting [3], the IC50 stood at 0.77 µM.

For the compound `O=C(/C=C/c1c(F)cccc1F)c1ccc(-n2ccnc2)cc1` [Compound 54], under setting [1], the IC50 was 7.8 µM.

In the case of `COc1ccc(C(=O)/C=C/c2c(Cl)cccc2Cl)c(OC)c1` [Compound 14], the IC50 under setting [3] was determined as 2.4 µM.

Turning to `COc1ccc(C(=O)/C=C/c2cccc(Cl)c2Cl)cc1OC` [Compound 2], under setting [3], the IC50 is 0.39 µM.

Consider `COc1ccc(C(=O)/C=C/c2cc(F)ccc2F)c(OC)c1` [Compound 10], for which the IC50 under setting [3] is 1.3 µM.

As for `O=C(/C=C/c1cc(Cl)cc(Cl)c1)c1ccc(Cl)cc1Cl` [Compound 8], the IC50 under setting [3] is 0.9 µM.

For `COc1ccc(C(=O)/C=C/c2cc(Cl)cc(Cl)c2)cc1OC` [Compound 30], the IC50 under setting [3] was 8.8 µM.

As to `COc1ccc(C(=O)/C=C/c2ccc(N(C)C)cc2)c(OC)c1` [Compound 11], under setting [3], the IC50 amounted to 1.4 µM.

Take `COc1ccc(C(=O)/C=C/c2c(Cl)cccc2Cl)cc1OC` [Compound 27]: the IC50 under setting [3] turned out to be 7.9 µM.

In the case of `O=C(/C=C/c1ccc(Cl)c([N+](=O)[O-])c1)c1ccccn1` [Compound 47], for the setting “read-out: IC50”, the IC50 is 8.2 µM.

`O=C(/C=C/c1ccccc1O)c1ccc(O)cc1O` [Compound 21]: the “antimalarial activity (in words)” value is “activity similar to that of hydrazide derivative IV44A”. Besides, under setting [3], the IC50 is 3.9 µM.

`COc1ccc(/C=C/C(=O)c2ccccc2O)cc1OC` [Compound 36]: under setting [3], the IC50 was determined as 16.4 µM.

For `COc1ccc(C(=O)/C=C/c2ccccc2OC)c(OC)c1` [Compound 9], the IC50 under setting [3] worked out at 0.96 µM.

In the case of `O=C(/C=C/c1ccc(O)cc1)c1ccc(O)cc1O` [Compound 26], under setting [3], the half-maximal inhibitory concentration (IC50) was 7.4 µM.

On to `COc1ccc(C(=O)/C=C/c2c(OC)cccc2OC)cc1OC` [Compound 22], for which, under setting [3], the half-inhibitory concentration (IC50) amounted to 4.2 µM.

As to `COc1ccc(C(=O)/C=C/c2cc(Cl)cc(Cl)c2)c(OC)c1` [Compound 43], the IC50 under setting [3] was > 148 µM.

Turning to `COc1ccc(C(=O)/C=C/c2ccc(F)cc2F)cc1OC` [Compound 42], the IC50 under setting [3] stood at 109 µM.

As to `COc1ccc(/C=C/C(=O)c2cc(Cl)ccc2Cl)c(OC)c1` [Compound 12], the IC50 under setting [3] was determined as 1.9 µM.

Consider `O=C(/C=C/c1ccc(Cl)cc1Cl)c1ccc(Cl)c(Cl)c1` [Compound 33], for which the IC50 under setting [3] came out at 14.6 µM.

For the compound `COc1ccc(C(=O)/C=C/c2cccnc2)c(OC)c1` [Compound 44], the IC50 under setting [2] came to 3.1 µM.

As for `COc1ccc(C(=O)/C=C/c2c(OC)cccc2OC)c(OC)c1` [Compound 29], the IC50 under setting [3] turned out to be 8.6 µM.

Take `COc1ccc(/C=C/C(=O)c2ccc(OC)cc2OC)c(OC)c1` [Compound 17]: under setting [3], the IC50 stood at 3.6 µM.

In the case of `COc1ccc(C(=O)/C=C/c2ccc(Cl)cc2Cl)cc1OC` [Compound 38], the half-inhibitory concentration (IC50) under setting [3] was 19.5 µM.

As for `COc1ccc(C(=O)/C=C/c2ccc(Cl)cc2)c(OC)c1` [Compound 5], the IC50 under setting [3] came out at 0.63 µM.

In the case of `COc1ccc(/C=C/C(=O)c2cccnc2)c(OC)c1` [Compound 46], the IC50 (read-out: IC50) was 7.2 µM.

As for `COc1ccc(/C=C/C(=O)c2ccc(Cl)c(Cl)c2)c(OC)c1` [Compound 16], the IC50 under setting [3] was 3.2 µM.

Regarding `CCN(CC)CCCC(C)Nc1ccnc2cc(Cl)ccc12` (stereo not drawn) [Chloroquine, chloroquine, reference compound], the IC50 is 0.23 µM (Plasmodium falciparum, Table I, formula III, W2 clone (CDC/Indochina III), * run: chloroquine 0.23 μM, † run: chloroquine 0.2-0.4 μM); 0.2 to 0.4 µM (Plasmodium falciparum, Table II, formula IV, * run: chloroquine 0.2-0.4 μM); 0.2 to 0.4 µM (Plasmodium falciparum, Table III, formula V); 0.23 µM (Plasmodium falciparum, read-out: WR, IC50 (μM), Table IV, formula VI); 0.2 to 0.4 µM (Plasmodium falciparum, similar tests); 0.2 µM (Table I, formula III, W2 clone (CDC/Indochina III), * run: chloroquine 0.23 μM, † run: chloroquine 0.2-0.4 μM). Further, it took 0.2 µM to reach half-maximal inhibition (Table II, formula IV, * run: chloroquine 0.2-0.4 μM) (IC50).
